Laboratory results as given in patent US20250228865A1, “COMPOUNDS FOR ENHANCING READ THROUGH OF GENES CONTAINING PREMATURE TERMINATION CODONS AND METHODS FOR MAKING AND USING THE SAME” (Sanofi US Services Inc., priority 2022, published 2025).

Experiments:
[1] = test system: recombinant human CFTR carrying the premature stop codon (PTC) mutation G542X; assay: CFTR-PTC mutant translation readthrough, Nanoluc tagged CFTR luminescence (G542X cell line); assay type: cell-based; settings: in combination with G418, G542X cell line; for CFTR G542X ACTIVITY Fold 10 μM G-418: fold over 10 μM G-418; for EC50: 16HBE cells
Protocol: 16HBE human bronchial epithelial cells (stably over-expressing recombinant human CFTR carrying the premature stop codon (PTC) mutation G542X or R1162X along with a Nanoluc tag incorporated into the CFTR channel within extracellular loop 4 in G542X cell line or C-terminus end in the R1162X cell line were seeded at 0.01×10^6 cells/well and grown in Minimal Essential Medium (MEM) as monolayers in 384 well plates and incubated at 37° C. with 5% CO2. Media was changed every other day until day of experiment. Agents to be evaluated were made up in separate 384 well, polypropylene plates at a 2X the final desired test concentration. Test agent 10-point concentration response curves were constructed using the Labcyte Echo 555 acoustic dispenser. Test agents were typically tested at a max final test concentrations of 50 μM with sequential 2-fold lower concentrations below this in the absence or presence of a fixed 10 μM concentration of the aminoglycoside G418 made up in MEM growth media (reduced Serum Media+HEPES Buffer+2.4 g/L Sodium Bicarbonate+L-Glutamine containing CFTR corrector VX-809 (3 μM)). Treatment with 10 μM G418 alone produced approximately 10% of the response observed with a maximally effective concentration of G418 (typically 125-250 μM). Test agent effects in presence of 10 μM G418 were compared to control wells on the plate containing a maximally effective concentration of G418 (typically 125-250 μM) made up in the same media. 25 ul of test agents/control solutions were transferred from the compound plate to the cell plate, which already contained 25 ul/well of cell plating media, using an Integra Viaflo 384. Cell plates were incubated with the compounds for 48 hours, at which time they were processed using Nanoluc luminescence Kit (Promega Nano-Glo Live Cell Assay System) to measure CFTR-PTC mutant translation readthrough. Luminescence was measured as follows. Cell plates were removed from the incubator and allowed to equilibrate to room temperature for 20 minutes. Media was removed from all wells and the plates were blotted to remove excess remaining volume. Nano-Glo Live Cell Substrate was diluted 1:20 in the appropriate amount of Nano-Glo LCS Dilution Buffer to accommodate the number of cell plates being tested. The substrate/dilution buffer mix was then diluted 1:3 with MEM media to make the appropriate volume for the number of plates being tested. The substrate/dilution buffer/OptiMEM mix was added across the Nanoluc testing cell plates and the plates were read for luminescence signal immediately. Test agent effects on CFTR translation readthrough was determined by normalizing any observed increase in luminescence induced by 48 hours pretreatment with test compound to the magnitude of luminescence increase produced by pretreatment with a maximally effective concentration of the reference readthrough enhancing agent G418 (125-250 μM).

[2] = test system: recombinant human CFTR carrying the premature stop codon (PTC) mutation R1162X; assay: CFTR-PTC mutant translation readthrough, Nanoluc tagged CFTR luminescence (R1162X cell line); assay type: cell-based; settings: for CFTR R1162X ACTIVITY Fold 10 μM G-418: fold over 10 μM G-418, in combination with G418; for EC50: in combination with G418, 16HBE cells, read-out: CFTR R1162X ACTIVITY EC50
In short: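 Readthrough is the 48 h compound-induced luminescence increase scaled to that of maximal G418 (125-250 μM). Compounds run from 50 μM final in 2-fold steps, ±10 μM G418, on 16HBE lines carrying Nanoluc-tagged CFTR G542X (extracellular loop 4 tag) or R1162X (C-terminal tag), with 3 μM VX-809 present.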

| SMILES | EC50 [1] | EC50 [2] | CFTR G542X ACTIVITY Fold 10 μM G-418 [1] | CFTR R1162X ACTIVITY Fold 10 μM G-418 [2] |
| --- | --- | --- | --- | --- |
| CN(C)CC1CN(c2ncc(OCc3c(Cl)cccc3Cl)cn2)CCO1 (centres unmarked) | > 10 µM | > 10 µM | A′ (A′ = ≥10X) | B′ (B′ = ≥5X to <10X) |
| O=C1CCN(c2ncc(OCc3c(Cl)cccc3C(F)(F)F)cn2)C(=O)N1 | 1 to 10 µM | > 10 µM | C′ (C′ = <5X) |  |
| NC(=O)c1ccn(-c2ncc(OCc3c(Cl)cccc3C(F)(F)F)cn2)n1 | < 1 µM | < 1 µM | A′ (A′ = ≥10X) | A′ (A′ = ≥10X) |
| CNC(=O)C1CCN(c2ncc(OCc3c(Cl)cccc3Cl)cn2)CC1 | 1 to 10 µM | 1 to 10 µM | A′ (A′ = ≥10X) | A′ (A′ = ≥10X) |
| Cc1cccc(C(F)(F)F)c1COc1cnc(NC(=O)N(C)C)nc1 | 1 to 10 µM | 1 to 10 µM | A′ (A′ = ≥10X) | C′ (C′ = <5X) |
| Cc1cccc(C(F)(F)F)c1COc1cnc(N2CCN(CCOCCO)CC2)nc1 | 1 to 10 µM | 1 to 10 µM | A′ (A′ = ≥10X) | A′ (A′ = ≥10X) |
| O=C1CN(c2ncc(OCc3c(Cl)cccc3Cl)cn2)CCN1CCO | 1 to 10 µM | 1 to 10 µM | A′ (A′ = ≥10X) | A′ (A′ = ≥10X) |
| NC(=O)N1CCN(c2ncc(OCc3c(Cl)cccc3Cl)cn2)CC(O)C1 (centres unmarked) | 1 to 10 µM | 1 to 10 µM | A′ (A′ = ≥10X) | A′ (A′ = ≥10X) |
| O=CNCC1CCCN(c2ncc(OCc3c(Cl)cccc3Cl)cn2)C1 (centres unmarked) | 1 to 10 µM | 1 to 10 µM | B′ (B′ = ≥5X to <10X) | B′ (B′ = ≥5X to <10X) |
| CC(=O)N[C@H]1CCN(c2ncc(OCc3c(Cl)cccc3Cl)cn2)C1 | 1 to 10 µM | 1 to 10 µM | A′ (A′ = ≥10X) | A′ (A′ = ≥10X) |
| CS(=O)(=O)NCC1CN(c2ncc(OCc3c(Cl)cccc3Cl)cn2)CCO1 (centres unmarked) | 1 to 10 µM | 1 to 10 µM | A′ (A′ = ≥10X) | B′ (B′ = ≥5X to <10X) |
| O=C(NCC1CN(c2ncc(OCc3c(Cl)cccc3Cl)cn2)CCO1)C(F)(F)F (centres unmarked) | 1 to 10 µM | 1 to 10 µM | A′ (A′ = ≥10X) | B′ (B′ = ≥5X to <10X) |
| OCc1ncn(-c2ncc(OCc3c(Cl)cccc3C(F)(F)F)cn2)n1 | < 1 µM | 1 to 10 µM | A′ (A′ = ≥10X) | A′ (A′ = ≥10X) |
| CC1CC(CO)CN1c1ncc(OCc2c(Cl)cccc2Cl)cn1 (centres unmarked) | 1 to 10 µM | 1 to 10 µM | A′ (A′ = ≥10X) | A′ (A′ = ≥10X) |
| Cc1cccc(C(F)(F)F)c1COc1cnc(N2CCOC(CN)C2)nc1 (centres unmarked) | < 1 µM | < 1 µM | A′ (A′ = ≥10X) | A′ (A′ = ≥10X) |
| Cc1cccc(C(F)(F)F)c1COc1cnc(N2CCC(CO)(CO)CC2)nc1 | < 1 µM | < 1 µM | A′ (A′ = ≥10X) | A′ (A′ = ≥10X) |
| NC[C@@H]1CN(c2ncc(OCc3c(Cl)cccc3Cl)cn2)CCO1 | < 1 µM | 1 to 10 µM | B′ (B′ = ≥5X to <10X) | A′ (A′ = ≥10X) |
| NC[C@H]1CN(c2ncc(OCc3c(Cl)cccc3Cl)cn2)CCO1 | < 1 µM | 1 to 10 µM | A′ (A′ = ≥10X) | A′ (A′ = ≥10X) |

Continued, in another order:

| EC50 [1] | EC50 [2] | SMILES | CFTR G542X ACTIVITY Fold 10 μM G-418 [1] | CFTR R1162X ACTIVITY Fold 10 μM G-418 [2] |
| --- | --- | --- | --- | --- |
| < 1 µM | 1 to 10 µM | CCc1cccc(C(F)(F)F)c1COc1ccc(N2CC(CO)NC2=O)cc1 (centres unmarked) | A′ (A′ = ≥10X) | A′ (A′ = ≥10X) |
| < 1 µM | < 1 µM | Cc1cccc(C(F)(F)F)c1COc1ccc(-n2cnc(C(N)=O)n2)cc1 | B′ (B′ = ≥5X to <10X) | A′ (A′ = ≥10X) |
| < 1 µM | 1 to 10 µM | Cc1cccc(C(F)(F)F)c1COc1cnc(N2CCC(C(N)=O)C2)nc1 (centres unmarked) | A′ (A′ = ≥10X) | A′ (A′ = ≥10X) |
| < 1 µM | < 1 µM | Cc1cccc(C(F)(F)F)c1COc1cnc(N2C(=O)CN(Cc3ccccc3)C2=O)nc1 | A′ (A′ = ≥10X) | A′ (A′ = ≥10X) |
| < 1 µM | 1 to 10 µM | Cc1cccc(C(F)(F)F)c1COc1ccc(N2C(=O)CN(C)C2=O)cc1 | A′ (A′ = ≥10X) | A′ (A′ = ≥10X) |
| < 1 µM | < 1 µM | Cc1cccc(C(F)(F)F)c1COc1cnc(N2CCN(C(N)=O)C(CO)C2)nc1 (centres unmarked) | A′ (A′ = ≥10X) | A′ (A′ = ≥10X) |
| 1 to 10 µM | > 10 µM | O=C1OC(CO)CN1c1ccc(OCc2c(Cl)cccc2OC(F)F)cc1 (centres unmarked) | C′ (C′ = <5X) | B′ (B′ = ≥5X to <10X) |
| 1 to 10 µM | 1 to 10 µM | O=C1OC(CO)CN1c1ccc(OCc2c(Cl)cccc2C2CC2)cc1 (centres unmarked) | A′ (A′ = ≥10X) | A′ (A′ = ≥10X) |
| < 1 µM | < 1 µM | Cc1cccc(C(F)(F)F)c1COc1cnc(N(C)CCCCO)nc1 | A′ (A′ = ≥10X) | A′ (A′ = ≥10X) |
| < 1 µM | < 1 µM | Cc1cccc(C(F)(F)F)c1COc1ccc(N2C(=O)NC(C)(C)C2=O)cc1 | A′ (A′ = ≥10X) | A′ (A′ = ≥10X) |
| 1 to 10 µM | 1 to 10 µM | Cc1cccc(C(F)(F)F)c1COc1cnc(N2CC(CO)OCC2=O)nc1 (centres unmarked) | A′ (A′ = ≥10X) | A′ (A′ = ≥10X) |
| 1 to 10 µM | 1 to 10 µM | Cc1cccc(C(C)(F)F)c1COc1ccc(-n2cc(CO)nn2)cc1 | B′ (B′ = ≥5X to <10X) | B′ (B′ = ≥5X to <10X) |
| < 1 µM | < 1 µM | OCc1ncn(-c2ccc(OCc3c(Cl)cccc3C(F)(F)F)cn2)n1 | A′ (A′ = ≥10X) | A′ (A′ = ≥10X) |
| < 1 µM | 1 to 10 µM | Cc1cccc(C(F)(F)F)c1COc1cnc(-n2cnc(CO)n2)nc1 | A′ (A′ = ≥10X) | A′ (A′ = ≥10X) |
| < 1 µM | < 1 µM | Cc1cccc(C(F)(F)F)c1COc1ccc(-n2cnc(CO)n2)nc1 | A′ (A′ = ≥10X) | A′ (A′ = ≥10X) |
| < 1 µM | < 1 µM | Cc1cccc(C(F)(F)F)c1COc1cnc(N2CCC(CO)C2)nc1 (centres unmarked) | A′ (A′ = ≥10X) | A′ (A′ = ≥10X) |
| < 1 µM | 1 to 10 µM | Cc1cccc(C(F)(F)F)c1COc1cnc(N2CCC[C@@H](O)C2)nc1 | A′ (A′ = ≥10X) | A′ (A′ = ≥10X) |
| < 1 µM | < 1 µM | Cc1cccc(C(F)(F)F)c1COc1cnc(N2CCC[C@H](O)C2)nc1 | A′ (A′ = ≥10X) | A′ (A′ = ≥10X) |
